Experimental data published in patent US20240417411A1, “COMPOUNDS AND METHODS FOR TREATMENT OF VIRAL INFECTIONS” (priority 2023, published 2024).

How the values were obtained:
in vitro [1] = format: cell-based; conditions: human
Protocol: Example C: CC50 MT4 Cytotoxicity of the compounds was determined in uninfected cells using the cell viability reagent in a similar fashion as described before for other cell types ([…] et al., Antimicrob Agents Chemother. 2008,52(2):655-65). […] Cells were cultured for 4-5 days at 37° C. Following the incubation, the cells were allowed to equilibrate to 25° C., and cell viability was determined by adding Cell-Titer Glo viability reagent. The mixture was incubated for 10 min, and the luminescence signal was quantified using an Envision plate reader. Untreated cell and cells treated at 2 μM puromycin (Sigma, St. Louis, MO) serve as 100% and 0% cell viability control, respectively. The percent of cell viability was calculated for each tested compound concentration relative to the 0% and 100% controls and the CC50 value was determined by non-linear regression as a compound concentration reducing the cell viability by 50%.

in vitro [2] = format: in vitro ADME; conditions: human, s9, pH 7.4
Protocol: Example D: GI S9 Stability […] The S9 metabolic reactions were initiated by the addition of the substrates to the S9 reaction mixture to a final concentration of 2 μM. […] Aliquots ([…]) of the diluted supernatant were analyzed on a Thermo Q-Exactive mass spectrometer as described below. Example F: Liquid Chromatography/Mass Spectroscopy Methods for S9 and Plasma Stability Quantification of test compounds, Reference Compound A (S9 stability assay nucleoside metabolite), and controls was performed by analyte/internal standard peak area ratio (PAR) values measured on a Thermo Q-Exactive mass spectrometer coupled to a Dionex UltiMate 3000 HPLC with a Leap Technologies HTC PAL autosampler. […] Mobile phase A consisted of 0.1% (v/v) formic acid in water. Mobile phase B consisted of 0.1% (v/v) formic acid in acetonitrile. Elution of analytes was achieved by a series of linear gradients of acetonitrile in water containing 0.10% (v/v) formic acid. The mass spectrometer was calibrated on a weekly basis and mass tolerance of 5 ppm was used.

SARS-CoV2-NLuc = assay: microbe, parasite or virus in culture; format: cell-based, SARS Coronavirus 2; conditions: Severe acute respiratory syndrome coronavirus 2, 48 h, read-out: SARS-CoV2 EC50 (nM)
RSV-Luc5 = assay: microbe, parasite or virus in culture; format: cell-based; conditions: human respiratory syncytial virus, NHBE, 72 h, read-out: RSV NHBE EC50 (nM)
[3] = system: Caco-2 cells (clone C2BBe1); conditions: human, Caco-2
in vitro [4] = conditions: human, plasma

SMILES	CC50 (in vitro [1]) [µM]	half-life at 2 μM (in vitro [2]) [min]	EC50 (SARS-CoV2-NLuc) [nM]	EC50 (RSV-Luc5) [nM]	Caco2 A to B [3]	Caco2 B to A [3]	half-life at 2 μM (in vitro [4]) [min]
CC(C)OC(=O)OC[C@H]1O[C@@](C#N)(c2ccc3c(N)ncnn23)C2OC(=O)CCC(=O)OC21 (stereo partly drawn) [Compound C1, ((7R,9R)-9-(4-aminopyrrolo[2,1-f][1,2,4]triazin-7-yl)-9-cyano-2,5-dioxooctahydrofuro[3,4-b][1,4]dioxocin-7-yl)methyl isopropyl carbonate]	> 50	0.716					
CC(C)OC(=O)OC[C@H]1O[C@@](C#N)(c2ccc3c(N)ncnn23)[C@@H]2OC(=O)CCCCCCC(=O)O[C@@H]21 [Compound C5, ((10aR,11R,13R,13aR)-13-(4-aminopyrrolo[2,1-f][1,2,4]triazin-7-yl)-13-cyano-2,9-dioxododecahydrofuro[3,4-b][1,4]dioxacyclododecin-11-yl)methyl isopropyl carbonate]	> 50	0.754					
N#C[C@@]1(c2ccc3c(N)ncnn23)O[C@H](CO)[C@H]2OC(=O)CCCC(=O)O[C@H]21 [Compound C10, (7aR,8R,10R,10aR)-8-(4-aminopyrrolo[2,1-f][1,2,4]triazin-7-yl)-10-(hydroxymethyl)-2,6-dioxooctahydro-2H-furo[3,4-b][1,4]dioxonine-8-carbonitrile]	> 50	0.768					
CC1(C)[C@H]2CC[C@@](C)(C2)[C@H]1OC(=O)OC[C@H]1O[C@@](C#N)(c2ccc3c(N)ncnn23)[C@@H]2OC(=O)CCCC(=O)O[C@@H]21 [Compound C28, ((7aR,8R,10R,10aR)-10-(4-aminopyrrolo[2,1-f][1,2,4]triazin-7-yl)-10-cyano-2,6-dioxooctahydro-2H-furo[3,4-b][1,4]dioxonin-8-yl)methyl ((1S,2R,4S)-1,3,3-trimethylbicyclo[2.2.1]heptan-2-yl) carbonate]	18	0.595	21700	7110			
CC1(C)CC(=O)O[C@H]2[C@@H](OC(=O)C1)[C@](C#N)(c1ccc3c(N)ncnn13)O[C@@H]2COC(=O)OC(C)(C)c1ccncc1 [Compound C34, ((7aR,8R,10R,10aR)-10-(4-aminopyrrolo[2,1-f][1,2,4]triazin-7-yl)-10-cyano-4,4-dimethyl-2,6-dioxooctahydro-2H-furo[3,4-b][1,4]dioxonin-8-yl)methyl (2-(pyridin-4-yl)propan-2-yl) carbonate]	> 50	44.7	8120	> 50000			
CC1(C)CC(=O)O[C@H]2[C@@H](OC(=O)C1)[C@](C#N)(c1ccc3c(N)ncnn13)O[C@@H]2COC(=O)OCCN1CCOCC1 [Compound C36, ((7aR,8R,10R,10aR)-10-(4-aminopyrrolo[2,1-f][1,2,4]triazin-7-yl)-10-cyano-4,4-dimethyl-2,6-dioxooctahydro-2H-furo[3,4-b][1,4]dioxonin-8-yl)methyl (2-morpholinoethyl) carbonate]	> 50	31.6	> 50000	> 50000			
CCC(CC)COC(=O)OC[C@H]1O[C@@](C#N)(c2ccc3c(N)ncnn23)[C@@H]2OC(=O)CC(C)(C)CC(=O)O[C@@H]21 [Compound C38, ((7aR,8R,10R,10aR)-10-(4-aminopyrrolo[2,1-f][1,2,4]triazin-7-yl)-10-cyano-4,4-dimethyl-2,6-dioxooctahydro-2H-furo[3,4-b][1,4]dioxonin-8-yl)methyl (2-ethylbutyl) carbonate]	30.9	7.17	38300	> 50000			
COC(C)(C)COC(=O)OC[C@H]1O[C@@](C#N)(c2ccc3c(N)ncnn23)[C@@H]2OC(=O)CC(C)(C)CC(=O)O[C@@H]21 [Compound C39, ((7aR,8R,10R,10aR)-10-(4-aminopyrrolo[2,1-f][1,2,4]triazin-7-yl)-10-cyano-4,4-dimethyl-2,6-dioxooctahydro-2H-furo[3,4-b][1,4]dioxonin-8-yl)methyl (2-methoxy-2-methylpropyl) carbonate]	> 50	9.97	8580	> 50000	2	7.17	
CC1(C)CC(=O)O[C@H]2[C@@H](OC(=O)C1)[C@](C#N)(c1ccc3c(N)ncnn13)O[C@@H]2COC(=O)OCC1(C#N)CC1 [Compound C41, ((7aR,8R,10R,10aR)-10-(4-aminopyrrolo[2,1-f][1,2,4]triazin-7-yl)-10-cyano-4,4-dimethyl-2,6-dioxooctahydro-2H-furo[3,4-b][1,4]dioxonin-8-yl)methyl ((1-cyanocyclopropyl)methyl) carbonate]	> 50	4.17	> 50000	> 50000	0.54	6.77	
CC1(C)CC(=O)O[C@H]2[C@@H](OC(=O)C1)[C@](C#N)(c1ccc3c(N)ncnn13)O[C@@H]2COC(=O)OC(C)(C)C(F)F [Compound C42, ((7aR,8R,10R,10aR)-10-(4-aminopyrrolo[2,1-f][1,2,4]triazin-7-yl)-10-cyano-4,4-dimethyl-2,6-dioxooctahydro-2H-furo[3,4-b][1,4]dioxonin-8-yl)methyl (1,1-difluoro-2-methylpropan-2-yl) carbonate]	> 50	27.7	> 50000	> 50000			
CCOC(=O)C(C)(C)OC(=O)OC[C@H]1O[C@@](C#N)(c2ccc3c(N)ncnn23)[C@@H]2OC(=O)CC(C)(C)CC(=O)O[C@@H]21 [Compound C43, ethyl 2-(((((7aR,8R,10R,10aR)-10-(4-aminopyrrolo[2,1-f][1,2,4]triazin-7-yl)-10-cyano-4,4-dimethyl-2,6-dioxooctahydro-2H-furo[3,4-b][1,4]dioxonin-8-yl)methoxy)carbonyl)oxy)-2-methylpropanoate]	> 50	19.7	> 50000	> 50000	2.93	11.62	
CC1(C)CC(=O)O[C@H]2[C@@H](OC(=O)C1)[C@](C#N)(c1ccc3c(N)ncnn13)O[C@@H]2COC(=O)O[C@H]1C(C)(C)[C@H]2CC[C@@]1(C)C2 [Compound C45, ((7aR,8R,10R,10aR)-10-(4-aminopyrrolo[2,1-f][1,2,4]triazin-7-yl)-10-cyano-4,4-dimethyl-2,6-dioxooctahydro-2H-furo[3,4-b][1,4]dioxonin-8-yl)methyl ((1S,2R,4S)-1,3,3-trimethylbicyclo[2.2.1]heptan-2-yl) carbonate]	12.6	37.3	9170	4160			
CC(C)(C)COC(=O)OC[C@H]1O[C@@](C#N)(c2ccc3c(N)ncnn23)[C@@H]2OC(=O)CC(C)(C)CC(=O)O[C@@H]21 [Compound C46, ((7aR,8R,10R,10aR)-10-(4-aminopyrrolo[2,1-f][1,2,4]triazin-7-yl)-10-cyano-4,4-dimethyl-2,6-dioxooctahydro-2H-furo[3,4-b][1,4]dioxonin-8-yl)methyl neopentyl carbonate]	> 50	4.71	> 50000	11700			
N#C[C@@]1(c2ccc3c(N)ncnn23)O[C@H](COC(=O)OC2CNC2)[C@H]2OC(=O)CCCC(=O)O[C@H]21 [Compound C50, ((7aR,8R,10R,10aR)-10-(4-aminopyrrolo[2,1-f][1,2,4]triazin-7-yl)-10-cyano-2,6-dioxooctahydro-2H-furo[3,4-b][1,4]dioxonin-8-yl)methyl azetidin-3-yl carbonate 2,2,2-trifluoroacetate]	> 50	1.91	3110	14500			
CC1(C)CC(=O)O[C@H]2[C@@H](OC(=O)C1)[C@](C#N)(c1ccc3c(N)ncnn13)O[C@@H]2COC(=O)OC1CNC1 [Compound C51, ((7aR,8R,10R,10aR)-10-(4-aminopyrrolo[2,1-f][1,2,4]triazin-7-yl)-10-cyano-4,4-dimethyl-2,6-dioxooctahydro-2H-furo[3,4-b][1,4]dioxonin-8-yl)methyl azetidin-3-yl carbonate 2,2,2-trifluoroacetate]	> 50	26.6	> 50000	> 50000			
N#C[C@@]1(c2ccc3c(N)ncnn23)O[C@H](COC(=O)C2CCC2)[C@H]2OC(=O)CCCC(=O)O[C@H]21 [Compound C57, ((7aR,8R,10R,10aR)-10-(4-aminopyrrolo[2,1-f][1,2,4]triazin-7-yl)-10-cyano-2,6-dioxooctahydro-2H-furo[3,4-b][1,4]dioxonin-8-yl)methyl cyclobutanecarboxylate]	> 50		3000	3780			7.33
